The test system of assay [1] is recurrent wheeze in the first 2 yrs. Description: Project Viva antioxidant study: maternal intake and recurrent wheeze in the first 2 yrs. To be noted: including supplements. Type of assay: in vivo, human. The text has this: (§1) Study subjects were enrolled in Project Viva, as described above. Recruitment and retention procedures have previously been published (Gillman et al., J. Pediatr. 144:240-245, 2004). We obtained information directly from participants and from medical records as detailed previously (Rifas-Shiman, Paediatr. Perinat. Epidemiol. 20:35-42, 2006). Data collected from interviews and questionnaires included demographics (infant gender, maternal marital status, and race), socioeconomic status (education and household income), and reproductive history (maternal gravidity, pre-pregnancy height and body mass index, and smoking). Questionnaires that inquired about infant health, feeding, and the home environment were administered when the child was 6 months, 1 year, and 2 years of age. Among 2,128 delivered infants in Project Viva, we excluded 228 participants because of missing first and second trimester diet assessment data and an additional 37 participants with a gestation of less than 34 completed weeks.
(§2) We assessed maternal diet using semi-quantitative food-frequency questionnaires (FFQ) validated for use during pregnancy (Fawzi et al., Ann. Epidemiol. 14:754-762, 2004), and used in several of our previous studies of maternal diet and offspring outcomes (Oken et al., Am. J. Epidemiol. 160:774-783, 2004; Huh et al., Int. J. Epidemiol. 34:378-384, 2005; Gillman et al., Circulation 110:1990-1995, 2004). As noted above, the FFQ used at the 1st visit reflected intakes in the 1st trimester; the time referent was “during this pregnancy,” that is from the date of the last menstrual period until the assessment, at an average of about 10 weeks gestation. To assess vitamin and supplement intake during the 1st trimester, we administered a separate interview that queried dose, duration, and brand/type of multivitamin, prescribed prenatal vitamins, and supplements. Also as noted above, the FFQ used at the 2nd visit (26 to 28 weeks of gestation) reflected intakes during the 2nd trimester; the time referent was “during the past 3 months.” The 2nd trimester instrument was the same as that for the 1st trimester except that we assessed use of vitamins/supplements as part of the self-completed FFQ.
(§3) To calculate intake of nutrients, we again used the Harvard nutrient composition database, which contains food composition values from the U.S. Department of Agriculture, supplemented by other data sources (U.S. Department of Agriculture ARS. USDA National Nutrient Database for Standard Reference, Release 14, 5R14; 2001). All nutrients were adjusted for total energy intake using the nutrient residuals method (Willett, Am. J. Clin. Nutr. 45:354-360, 1987). Mean nutrient intakes from the 1st and 2nd trimesters were used as the exposure in the analyses. If a participant only completed one FFQ, then nutrients calculated from that questionnaire were taken as the exposure of interest. One thousand one hundred and thirty-five (88.0%) of the 1,290 participants completed both FFQs, 96 (7.4%) completed the first trimester FFQ only, and 59 (4.6%) completed the second trimester FFQ only.
(§4) We ascertained the wheeze outcomes from questions from the First Year and Second Year Questionnaires: “since your child was born/since your child was […], has he/she ever had wheezing (or whistiling in the chest)?” “Any wheeze” was defined as a positive response to the question at either the first or second year questionnaire. “Recurrent wheeze” was defined as positive responses to the questions in both the first and second year questionnaires. […] “Respiratory infections” was defined as positive responses to one of three questions: “since your child was born/12 months old, have you been told by a health care professional (such as a doctor, physician assistant, or nurse practitioner) that your child has: (a) bronchiolitis; (b) pneumonia; (c) bronchitis, croup, or any other respiratory infection?” on either the first or second year questionnaires. […]

Assay [2] has as its system any wheeze in the first 2 yrs. Description: Project Viva antioxidant study: maternal intake and any wheeze in the first 2 yrs. Type of assay: in vivo, human. Conditions: for Any wheeze in the first 2 yrs, Univariate Model OR (95% CI) / Any wheeze in the first 2 yrs, Multivariable Model OR (95% CI): including supplements; for Association of total maternal intake with any wheeze in univariable models: total intakes.
Description: as §1, §2, §3, §4

The mark [3] stands for this setting: 2nd vs 1st (lowest) quartile of maternal intake.
The mark [4] stands for this setting: 2nd vs 1st (lowest) quartile of maternal intake, n = 1,038.
The mark [5] stands for this setting: 3rd vs 1st (lowest) quartile of maternal intake.
Setting [6] is: 4th (highest) vs 1st (lowest) quartile of maternal intake.
Setting [7] is: 2nd vs 1st (lowest) quartile of maternal intake, calorie adjusted, n = 1,161.

Data on six compounds can be found in patent US20100209536A1, “Methods and Kits for Use in the Treatment and Prevention of Diseases or Conditions of the Immune System or Infectious Diseases” (The Brigham and Women's Hospital, Inc., priority 2006, published 2010).

Structures are written as SMILES.

As for `CC1=C(/C=C/C(C)=C/C=C/C(C)=C/C=C/C=C(C)/C=C/C=C(C)/C=C/C2=C(C)CCCC2(C)C)C(C)(C)CCC1` [β Carotene, β-carotene], the “Recurrent wheeze in the first 2 yrs, Multivariable Model OR (95% CI)” value in assay [1] (setting [3]) was 1.24 (0.72, 2.13); in assay [1] (setting [5]), 1.23 (0.72, 2.13); in assay [1] (setting [6]), 1.01 (0.56, 1.81). The “Recurrent wheeze in the first 2 yrs, Univariate Model OR (95% CI)” value in assay [1] (setting [4]) was 0.85 (0.52, 1.37); in assay [1] (setting [5]), 0.76 (0.46, 1.24); in assay [1] (setting [6]), 0.58 (0.34, 0.97)^5. For the same compound, the “Any wheeze in the first 2 yrs, Univariate Model OR (95% CI)” value (shortened to “Any wheeze … Univariate Model OR (95% CI)”) in assay [2] (setting [7]) is on record as 1.01 (0.71, 1.41); in assay [2] (setting [5]), 0.85 (0.60, 1.20); in assay [2] (setting [6]), 0.71 (0.50, 1.02). In addition, the “Any wheeze in the first 2 yrs, Multivariable Model OR (95% CI)” value is listed as 1.28 (0.88, 1.88) in assay [2] (setting [3]); 1.21 (0.82, 1.77) in assay [2] (setting [5]); 0.98 (0.66, 1.47) in assay [2] (setting [6]). Also, the “Association of total maternal intake with any wheeze in univariable models” value (from here on “Association of total maternal intake”) in assay [2] is “associated with lower risks”.

As for `CC1=CCCC(C)(C)C1/C=C/C(C)=C/C=C/C(C)=C/C=C/C=C(C)/C=C/C=C(C)/C=C/C1=C(C)CCCC1(C)C` (stereo not drawn) [α Carotene, α-carotene], the “Recurrent wheeze in the first 2 yrs, Multivariable Model OR (95% CI)” value in assay [1] (setting [3]) was 1.22 (0.71, 2.09); in assay [1] (setting [5]), 1.01 (0.57, 1.80); in assay [1] (setting [6]), 1.26 (0.72, 2.21). The “Recurrent wheeze in the first 2 yrs, Univariate Model OR (95% CI)” value in assay [1] (setting [4]) was 0.98 (0.60, 1.60); in assay [1] (setting [5]), 0.74 (0.43, 1.25); in assay [1] (setting [6]), 0.88 (0.53, 1.45). Moreover, the “Any wheeze … Univariate Model OR (95% CI)” value in assay [2] (setting [7]) is listed as 0.77 (0.54, 1.09); in assay [2] (setting [5]), 0.82 (0.58, 1.16); in assay [2] (setting [6]), 0.75 (0.53, 1.06). For the same compound, the “Any wheeze in the first 2 yrs, Multivariable Model OR (95% CI)” value in assay [2] (setting [3]) is given as 0.87 (0.60, 1.26); in assay [2] (setting [5]), 1.00 (0.69, 1.45); in assay [2] (setting [6]), 0.92 (0.63, 1.34).

Take `Nc1nc2ncc(CNc3ccc(C(=O)N[C@@H](CCC(=O)O)C(=O)O)cc3)nc2c(=O)[nH]1` [Folic acid, folic acid]: the “Recurrent wheeze in the first 2 yrs, Multivariable Model OR (95% CI)” value in assay [1] (setting [3]) is recorded as 0.93 (0.55, 1.58); in assay [1] (setting [5]) it was 0.75 (0.43, 1.28); in assay [1] (setting [6]) it was 0.68(0.38, 1.22). In addition, the “Recurrent wheeze in the first 2 yrs, Univariate Model OR (95% CI)” value in assay [1] (setting [4]) is 0.77 (0.48, 1.24); in assay [1] (setting [5]) it was 0.58 (0.35, 0.95)^5; in assay [1] (setting [6]) it was 0.46 (0.27, 0.78)^5. The “Any wheeze … Univariate Model OR (95% CI)” value is on record as 0.94 (0.67, 1.32) in assay [2] (setting [7]); 0.63 (0.44, 0.89)^5 in assay [2] (setting [5]); 0.64 (0.45, 0.91)^5 in assay [2] (setting [6]). Besides, the “Any wheeze in the first 2 yrs, Multivariable Model OR (95% CI)” value in assay [2] (setting [3]) is reported as 1.13 (0.78, 1.64); in assay [2] (setting [5]), 0.79 (0.54, 1.16); in assay [2] (setting [6]), 0.89 (0.60, 1.31). In addition, the “Association of total maternal intake” value in assay [2] was “associated with lower risks”.

For the compound `[Cu]` [Copper, copper], the “Recurrent wheeze in the first 2 yrs, Multivariable Model OR (95% CI)” value in assay [1] (setting [3]) is recorded as 0.75 (0.43, 1.30); in assay [1] (setting [5]), 1.02 (0.60, 1.75); in assay [1] (setting [6]), 0.90 (0.51, 1.59). Also, the “Recurrent wheeze in the first 2 yrs, Univariate Model OR (95% CI)” value in assay [1] (setting [4]) is reported as 0.63 (0.38, 1.03); in assay [1] (setting [5]), 0.67 (0.41, 1.09); in assay [1] (setting [6]), 0.57 (0.34, 0.95)^5. The “Any wheeze … Univariate Model OR (95% CI)” value in assay [2] (setting [7]) is on record as 0.78 (0.55, 1.10); in assay [2] (setting [5]), 0.71 (0.50, 1.01); in assay [2] (setting [6]), 0.69 (0.49, 0.99)^5. Further, the “Any wheeze in the first 2 yrs, Multivariable Model OR (95% CI)” value in assay [2] (setting [3]) is on record as 0.93 (0.64, 1.35); in assay [2] (setting [5]), 0.91 (0.62, 1.34); in assay [2] (setting [6]) it was 0.90 (0.61, 1.33). Also, the “Association of total maternal intake” value in assay [2] is reported as “associated with lower risks”.

As for `CC1=C(/C=C/C(C)=C/C=C/C(C)=C/C=C/C=C(C)/C=C/C=C(C)/C=C/C2=C(C)C[C@@H](O)CC2(C)C)C(C)(C)CCC1` [β Cryptoxanthin], the “Recurrent wheeze in the first 2 yrs, Multivariable Model OR (95% CI)” value is recorded as 1.33 (0.78, 2.28) in assay [1] (setting [3]); 0.97 (0.55, 1.72) in assay [1] (setting [5]); 1.28 (0.73, 2.26) in assay [1] (setting [6]). In addition, the “Recurrent wheeze in the first 2 yrs, Univariate Model OR (95% CI)” value in assay [1] (setting [4]) is on record as 1.36 (0.82, 2.24); in assay [1] (setting [5]), 0.95 (0.56, 1.63); in assay [1] (setting [6]) it was 1.05 (0.62, 1.78). Moreover, the “Any wheeze … Univariate Model OR (95% CI)” value in assay [2] (setting [7]) is on record as 0.80 (0.57, 1.13); in assay [2] (setting [5]) it was 0.72 (0.51, 1.02); in assay [2] (setting [6]), 0.92 (0.66, 1.30). Moreover, the “Any wheeze in the first 2 yrs, Multivariable Model OR (95% CI)” value in assay [2] (setting [3]) is 0.82 (0.57, 1.18); in assay [2] (setting [5]) it was 0.81 (0.56, 1.18); in assay [2] (setting [6]), 0.97 (0.67, 1.41).

Consider `CC(C)=CCC/C(C)=C/C=C/C(C)=C/C=C/C(C)=C/C=C/C=C(C)/C=C/C=C(C)/C=C/C=C(\C)CCC=C(C)C` [Lycopene, lycopene], for which the “Recurrent wheeze in the first 2 yrs, Multivariable Model OR (95% CI)” value in assay [1] (setting [3]) is given as 1.06 (0.62, 1.83); in assay [1] (setting [5]), 1.40 (0.82, 2.40); in assay [1] (setting [6]) it was 0.75 (0.42, 1.33). Also, the “Recurrent wheeze in the first 2 yrs, Univariate Model OR (95% CI)” value in assay [1] (setting [4]) is 0.88 (0.53, 1.46); in assay [1] (setting [5]) it was 1.01 (0.62, 1.64); in assay [1] (setting [6]), 0.70 (0.42, 1.17). In addition, the “Any wheeze … Univariate Model OR (95% CI)” value was 1.27 (0.90, 1.80) in assay [2] (setting [7]); 1.26 (0.90, 1.79) in assay [2] (setting [5]); 0.83 (0.58, 1.19) in assay [2] (setting [6]). Besides, the “Any wheeze in the first 2 yrs, Multivariable Model OR (95% CI)” value is listed as 1.50 (1.02, 2.19) in assay [2] (setting [3]); 1.67 (1.14, 2.45) in assay [2] (setting [5]); 0.96 (0.64, 1.42) in assay [2] (setting [6]).
